Data as given in patent publication US20110086759A1, “CHEMICAL COMPOUNDS” (SYNGENTA CROP PROTECTION, INC., priority 2007, published 2011).

Legend:
Type in all cases: in vivo
[1] = test system: Amaranthus retoflexus (AMARE); test: Post-emergence biological efficacy, glasshouse pot test; conditions: Amaranthus retroflexus, 312 h; post-emergence, 1,000 g/ha, evaluated after 13 days (100=total damage; 0=no damage); read-out: Percentage damage caused to weed species, AMARE
Summary of the method: (§1)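 Scored 13 days after spraying on a 0 (no damage) to 100 (total damage) scale. Treatment was a post-emergence spray at 1000 or 250 g/ha, from acetone/water 50:50 plus 0.5% Tween 20, onto 8-day-old plants in soil pots. Growth at 24/16° C, 14 h photoperiod, 65% humidity, watered twice daily.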

[2] = test system: Echinochloa crus-galli (ECHCG); test: as above; conditions: 312 h, post-emergence, 1,000 g/ha, evaluated after 13 days (100=total damage; 0=no damage), read-out: Percentage damage caused to weed species, ECHCG
Summary of the method: as §1

[3] = test system: Ipomea hederaceae (IPOHE); test: as above; conditions: Ipomoea hederacea, 312 h; post-emergence, 1,000 g/ha, evaluated after 13 days (100=total damage; 0=no damage); read-out: Percentage damage caused to weed species, IPOHE
Summary of the method: as §1

Setaria faberi (SETFA) [4] = test: as above; conditions: 312 h, post-emergence, 1,000 g/ha, evaluated after 13 days (100=total damage; 0=no damage), read-out: Percentage damage caused to weed species, SETFA
Summary of the method: as §1

Solanum nigrum (SOLNI) [5] = test: as above; conditions: 312 h, post-emergence, 1,000 g/ha, evaluated after 13 days (100=total damage; 0=no damage), read-out: Percentage damage caused to weed species, SOLNI
Summary of the method: as §1

[6] = test system: Alopecurus myosuroides (ALOMY); test: as above; conditions: 312 h, post-emergence, 1,000 g/ha, evaluated after 13 days (100=total damage; 0=no damage), read-out: Percentage damage caused to weed species, ALOMY
Summary of the method: as §1

[7] = test system: Amaranthus retoflexus (AMARE); test: Pre-emergence biological efficacy, glasshouse pot test; conditions: Amaranthus retroflexus, 312 h; pre-emergence, 1,000 g/ha, evaluated after 13 days (100=total damage; 0=no damage); read-out: Percentage damage AMARE
Summary of the method: (§2)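 Sow seeds in pots of standard soil; after one day in the glasshouse, spray test compound (1000 or 250 g/ha) in aqueous acetone/water with 0.5% Tween 20. Grow 13 days at 24/16 °C day/night, then score damage from 0 to 100.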

[8] = test system: Echinochloa crus-galli (ECHCG); test: as above; conditions: 312 h, pre-emergence, 1,000 g/ha, evaluated after 13 days (100=total damage; 0=no damage), read-out: Percentage damage ECHCG
Summary of the method: as §2

[9] = test system: Ipomea hederaceae (IPOHE); test: as above; conditions: Ipomoea hederacea, 312 h; pre-emergence, 1,000 g/ha, evaluated after 13 days (100=total damage; 0=no damage); read-out: Percentage damage IPOHE
Summary of the method: as §2

Setaria faberi (SETFA) [10] = test: as above; conditions: 312 h, pre-emergence, 1,000 g/ha, evaluated after 13 days (100=total damage; 0=no damage), read-out: Percentage damage SETFA
Summary of the method: as §2

Solanum nigrum (SOLNI) [11] = test: as above; conditions: 312 h, pre-emergence, 1,000 g/ha, evaluated after 13 days (100=total damage; 0=no damage), read-out: Percentage damage SOLNI
Summary of the method: as §2

[12] = test system: Alopecurus myosuroides (ALOMY); test: as above; conditions: 312 h, pre-emergence, 1,000 g/ha, evaluated after 13 days (100=total damage; 0=no damage), read-out: Percentage damage ALOMY
Summary of the method: as §2

Structure (SMILES) | pest or weed control at 1000 g/ha [1] [%] | pest or weed control at 1000 g/ha [2] [%] | pest or weed control at 1000 g/ha [3] [%] | pest or weed control at 1000 g/ha (Setaria faberi (SETFA) [4]) [%] | pest or weed control at 1000 g/ha (Solanum nigrum (SOLNI) [5]) [%] | pest or weed control at 1000 g/ha [6] [%] | pest or weed control at 1000 g/ha [7] [%] | pest or weed control at 1000 g/ha [8] [%] | pest or weed control at 1000 g/ha [9] [%] | pest or weed control at 1000 g/ha (Setaria faberi (SETFA) [10]) [%] | pest or weed control at 1000 g/ha (Solanum nigrum (SOLNI) [11]) [%] | pest or weed control at 1000 g/ha [12] [%]
COC(=O)c1nc(C2CC2)nc(NCc2cc(OC)c(OC)c(OC)c2)c1Cl [Compound 4-122, 5-Chloro-2-cyclopropyl-6-methoxycarbonyl-4-(3,4,5-trimethoxy-phenylmethyl-amino)pyrimidine] | 100 | 90 | 100 | 90 | 100 | 20 | 60 | 30 | 90 | 20 | 30 | 10
COC(=O)c1nc(C2CC2)nc(NCc2ccco2)c1Cl [Compound 4-125, 5-Chloro-2-cyclopropyl-4-(furan-2-ylmethyl-amino)-6-methoxy-carbonylpyrimidine] | 100 | 80 | 100 | 90 | 100 | 60 | 100 | 80 | 100 | 80 | 90 | 70
COC(=O)c1nc(C2CC2)nc(NCc2ccc(Br)o2)c1Cl [Compound 4-129, 4-(5-bromofuran-2-ylmethylamino)-5-chloro-2-cyclopropyl-6-methoxycarbonyl-pyrimidine] | 100 | 70 | 100 | 90 | 90 | 40 | 100 | 70 | 100 | 40 | 100 | 30
COC(=O)c1nc(C2CC2)nc(NCc2ccc(C)o2)c1Cl [Compound 4-135, 5-Chloro-2-cyclopropyl-6-methoxy carbonyl-4-(5-methylfuran-2-ylmethylamino)-pyrimidine] | 100 | 90 | 100 | 90 | 100 | 60 | 100 | 100 | 100 | 90 | 100 | 60
COC(=O)c1nc(C2CC2)nc(NCc2cccs2)c1Cl [Compound 4-140, 5-Chloro-2-cyclopropyl-6-methoxycarbonyl-4-(thiophen-2-ylmethylamino)-pyrimidine] | 90 | 60 | 90 | 70 | 90 | 30 | 100 | 40 | 80 | 50 | 100 | 20
COC(=O)c1nc(C2CC2)nc(NCc2ccsc2Br)c1Cl [Compound 4-143, 4-(2-Bromothiophen-3-ylmethylamino)-5-chloro-2-cyclopropyl-6-methoxycarbonyl-pyrimidine] | 90 | 60 | 100 | 70 | 90 | 20 | 70 | 20 | 80 | 0 | 50 | 0
